system: ob/ob and db/db mice; test: not given; conditions: following 8 weeks of administration; cited from earlier work

Compound | blood glucose reduction [%]
NC(=O)c1ncn([C@@H]2O[C@H](CO)[C@@H](O)[C@H]2O)c1N [AICAR] | 35

molecular target: recombinant human AMPK complex 1 (containing α1β1γ1) (Homo sapiens, UniProt Q13131+Q9Y478); test: […] (in vitro AMPK activation assay); assay type: biochemical; conditions: read-out: % Maximum AMP Activation of human AMPK Complex 1, recombinant human AMPK complex 1 (α1β1γ1); basal activity subtracted
Sequence (Q13131 whole entry): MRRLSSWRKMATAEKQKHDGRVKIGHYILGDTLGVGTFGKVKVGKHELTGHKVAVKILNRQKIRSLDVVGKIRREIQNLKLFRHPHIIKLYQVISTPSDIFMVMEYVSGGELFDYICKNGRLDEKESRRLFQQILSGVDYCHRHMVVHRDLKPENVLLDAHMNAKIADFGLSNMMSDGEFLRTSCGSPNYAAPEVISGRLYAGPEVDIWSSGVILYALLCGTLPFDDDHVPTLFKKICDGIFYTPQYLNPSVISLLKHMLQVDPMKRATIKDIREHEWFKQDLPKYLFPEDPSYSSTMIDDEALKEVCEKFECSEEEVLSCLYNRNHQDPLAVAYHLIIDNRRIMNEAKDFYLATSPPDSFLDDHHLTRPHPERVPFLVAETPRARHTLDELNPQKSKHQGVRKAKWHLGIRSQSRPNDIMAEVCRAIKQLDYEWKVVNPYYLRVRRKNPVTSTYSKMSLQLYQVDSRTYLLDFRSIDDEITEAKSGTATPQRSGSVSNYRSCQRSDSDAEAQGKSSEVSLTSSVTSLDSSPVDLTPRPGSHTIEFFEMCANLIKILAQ
Sequence (Q9Y478 whole entry): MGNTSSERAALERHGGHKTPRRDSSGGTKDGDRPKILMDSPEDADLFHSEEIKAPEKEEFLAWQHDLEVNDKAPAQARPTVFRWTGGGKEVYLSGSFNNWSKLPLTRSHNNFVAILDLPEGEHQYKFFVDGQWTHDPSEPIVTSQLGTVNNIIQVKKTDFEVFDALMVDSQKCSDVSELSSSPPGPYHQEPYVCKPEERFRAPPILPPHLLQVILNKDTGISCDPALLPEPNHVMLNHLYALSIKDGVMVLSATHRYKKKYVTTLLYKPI
Sequence (P54619 whole entry partner): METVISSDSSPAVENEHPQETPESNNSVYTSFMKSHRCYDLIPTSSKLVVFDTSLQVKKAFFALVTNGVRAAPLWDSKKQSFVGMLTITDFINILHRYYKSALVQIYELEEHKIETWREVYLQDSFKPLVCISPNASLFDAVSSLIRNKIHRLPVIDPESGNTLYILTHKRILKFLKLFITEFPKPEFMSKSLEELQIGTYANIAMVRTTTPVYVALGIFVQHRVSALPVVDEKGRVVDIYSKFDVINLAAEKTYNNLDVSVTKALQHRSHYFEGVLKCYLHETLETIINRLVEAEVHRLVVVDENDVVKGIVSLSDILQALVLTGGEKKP

Compound | Emax [%]
CCCCc1ccc(-c2cc3nc(Oc4ccc(C)c(C(=O)O)c4)[nH]c3cc2Cl)cc1 [Example 344, Ammonium 5-{[5-(4-butylphenyl)-6-chloro-1H-benzimidazol-2-yl]oxy}-2-methylbenzoate] | > 80
Cc1cc(-c2cc3nc(Oc4ccc(C)c(C(=O)O)c4)[nH]c3cc2Cl)ccc1F [Example 328, Ammonium 5-{[6-chloro-5-(4-fluoro-3-methylphenyl-1H-benzimidazol-2-yl]oxy}-2-methylbenzoate] | > 80

same assay, conditions: recombinant human AMPK complex 1 (α1β1γ1); basal activity subtracted; read-out: % Maximum AMP Activation of human AMPK Complex 1

Compound | Emax [%]
O=C(O)Cn1nnc(-c2cccc(Oc3nc4cc(-c5ccc(-c6ccccc6)cc5)c(Cl)cc4[nH]3)c2)n1 [Example 40, {5-[3-(5-Biphenyl-4-yl-6-chloro-1H-benzoimidazol-2-yloxy)-phenyl]-tetrazol-2-yl}-acetic acid] | > 80
Cc1ccc(Oc2nc3cc(-c4ccc5c(c4)c(CN(C)C)cn5C)c(Cl)cc3[nH]2)cc1C(=O)O [Example 353, 5-[6-Chloro-5-(3-dimethylaminomethyl-1-methyl-1H-indol-5-yl)-1H-benzoimidazol-2-yloxy]-2-methyl-benzoic acid] | > 80
COC(=O)c1cc(Oc2nc3cc(C#Cc4ccc(OC(F)(F)F)cc4)c(Cl)cc3[nH]2)ccc1C [Example 98, 5-[6-Chloro-5-(4-trifluoromethoxy-phenylethynyl)-1H-benzoimidazol-2-yloxy]-2-methyl-benzoic acid methyl ester] | > 80
Cc1ccc(Oc2nc3cc(-c4ccc5ccccc5c4)c(Cl)cc3[nH]2)cc1C(=O)O [Example 66, 5-{[6-chloro-5-(2-naphthyl)-1H-benzimidazol-2-yl]oxy}-2-methylbenzoic acid] | > 80
Cc1ccc(Oc2nc3cc(-c4ccc(C5CC5)c(N(C)C)c4)c(Cl)cc3[nH]2)cc1C(=O)O [Example 267, 5-[6-Chloro-5-(4-cyclopropyl-3-dimethylamino-phenyl)-1H-benzoimidazol-2-yloxy]-2-methyl-benzoic acid] | > 80
COC(=O)c1cc(Oc2nc3cc(-c4ccc(-c5cccnc5)cc4)c(Cl)cc3[nH]2)ccc1C [Example 171, 5-[6-Chloro-5-(4-pyridin-3-yl-phenyl)-1H-benzoimidazol-2-yloxy]-2-methyl-benzoic acid methyl ester] | > 80
Cc1ccc(Oc2nc3cc(-c4ccc(-c5ccccc5)cc4)c(Cl)cc3[nH]2)cc1C(=O)NS(C)(=O)=O [Example 221, N-[5-(5-Biphenyl-4-yl-6-chloro-1H-benzoimidazol-2-yloxy)-2-methyl-benzoyl]-methanesulfonamide] | > 80
CCn1ccc2cc(-c3cc4nc(Oc5ccc(C)c(C(=O)O)c5)[nH]c4cc3Cl)ccc21 [Example 254, 5-[6-Chloro-5-(1-ethyl-1H-indol-5-yl)-1H-benzoimidazol-2-yloxy]-2-methyl-benzoic acid] | > 80
O=C(O)c1ccc(Oc2nc3cc(-c4ccc(-c5ccccc5)cc4)c(Cl)cc3[nH]2)cc1C(=O)O [Example 36, 4-(5-Biphenyl-4-yl-6-chloro-1H-benzoimidazol-2-yloxy)-phthalic acid] | > 80
OCc1cccc(Oc2nc3cc(-c4ccc(-c5ccccc5)cc4)c(Cl)cc3[nH]2)c1 [Example 37, [3-(5-Biphenyl-4-yl-6-chloro-1H-benzoimidazol-2-yloxy)-phenyl]-methanol] | > 80
Cc1ccc(Oc2nc3cc(-c4ccc(N5CCOCC5)cc4)c(Cl)cc3[nH]2)cc1C(=O)O [Example 179, 5-[6-Chloro-5-(4-morpholin-4-yl-phenyl)-1H-benzoimidazol-2-yloxy]-2-methyl-benzoic acid] | > 80
Cc1ccc(Oc2nc3cc(-c4ccc(-c5ccccc5)cc4)ccc3[nH]2)cc1C(=O)O [Example 207, 5-(5-Biphenyl-4-yl-1H-benzoimidazol-2-yloxy)-2-methyl-benzoic acid] | > 80
O=C(O)c1cccc(Nc2nc3cc(-c4ccc(-c5ccccc5O)cc4)c(Cl)cc3[nH]2)c1 [Example 52, 3-[6-Chloro-5-(2′-hydroxy-biphenyl-4-yl)-1H-benzoimidazol-2-ylamino]-benzoic acid] | > 80
Cc1ccc(Oc2nc3cc(C#Cc4ccc(-c5csnn5)cc4)c(Cl)cc3[nH]2)cc1C(=O)O [Example 85, 5-[6-Chloro-5-(4-[1,2,3]thiadiazol-4-yl-phenylethynyl)-1H-benzoimidazol-2-yloxy]-2-methyl-benzoic acid] | > 80
COc1cccc(C#Cc2cc3nc(Oc4ccc(C)c(C(=O)O)c4)[nH]c3cc2Cl)c1 [Example 108, 5-[6-Chloro-5-(3-methoxy-phenylethynyl)-1H-benzoimidazol-2-yloxy]-2-methyl-benzoic acid] | > 80
Cc1ccc(Oc2nc3cc(-c4ccc(/C(N)=N/O)cc4)c(Cl)cc3[nH]2)cc1C(=O)O [Example 177, 5-{6-Chloro-5-[4-(N-hydroxycarbamimidoyl)-phenyl]-1H-benzoimidazol-2-yloxy}-2-methyl-benzoic acid] | > 80
Cc1ccc(Oc2nc3cc(-c4ccc(-c5nnn[nH]5)cc4)c(Cl)cc3[nH]2)cc1C(=O)O [Example 176, 5-{6-Chloro-5-[4-(1H-tetrazol-5-yl)-phenyl]-1H-benzoimidazol-2-yloxy}-2-methyl-benzoic acid] | > 80
Cc1cccc(C#Cc2cc3nc(Oc4ccc(C)c(C(=O)O)c4)[nH]c3cc2Cl)c1 [Example 97, 5-(6-Chloro-5-m-tolylethynyl-1H-benzoimidazol-2-yloxy)-2-methyl-benzoic acid] | > 80
Cc1ccc(Oc2nc3cc(C#Cc4ccc(C5(O)CC5)cc4)c(Cl)cc3[nH]2)cc1C(=O)O [Example 89, 5-{6-Chloro-5-[4-(1-hydroxy-cyclopropyl)-phenylethynyl]-1H-benzoimidazol-2-yloxy}-2-methyl-benzoic acid] | > 80
Cc1ccc(Oc2nc3cc(-c4cn[nH]c4)c(Cl)cc3[nH]2)cc1C(=O)O [Example 160, 5-[6-Chloro-5-(1H-pyrazol-4-yl)-1H-benzoimidazol-2-yloxy]-2-methyl-benzoic acid] | > 80
Cc1ccc(Oc2nc3cc(C#Cc4ccc(-n5ccnc5)cc4)c(Cl)cc3[nH]2)cc1C(=O)O [Example 86, 5-[6-Chloro-5-(4-imidazol-1-yl-phenylethynyl)-1H-benzoimidazol-2-yloxy]-2-methyl-benzoic acid] | > 80
O=C(O)c1cc(Oc2nc3cc(-c4ccc(-c5ccccc5)cc4)c(Cl)cc3[nH]2)ccc1O [Example 28, 5-(5-Biphenyl-4-yl-6-chloro-1H-benzoimidazol-2-yloxy)-2-hydroxy-benzoic acid] | > 80

same assay, conditions: recombinant human AMPK complex 1 (α1β1γ1); read-out: EC50

Compound | EC50 [nM]
Cc1ccc(Oc2nc3cc(-c4ccc(C(=O)N5CCC(O)CC5)cc4)c(Cl)cc3[nH]2)cc1C(=O)O [Example 236, 5-{6-Chloro-5-[4-(4-hydroxy-piperidine-1-carbonyl)-phenyl]-1H-benzoimidazol-2-yloxy}-2-methyl-benzoic acid] | 10
